Reference: US4992570A, “UCN-1028A and UCN-1028C and process for the production thereof” (Kyowa Hakko Kogyo Co., Ltd., priority 1987, dated 1991)
In brackets after ≈: the same amount, converted by molar mass. Where two headings read alike, the source gives them in different places.

Columns and labels:
Protein Kinase C = assay: Protein kinase C inhibitory activity (method of Kikkawa et al.); format: biochemical, rat; details: for IC50 Protein Kinase C: crude enzyme partially purified from rat brain, [γ-32P]ATP, Histone Type IIS, 30° C., 3 minutes; for selective inhibitory activity on protein kinase C, as compared with Phleichrome: statement on Table 1 (protein kinase C vs protein kinase A)
Procedure: Protein kinase C inhibitory activity was measured by the method of Kikkawa, et al. [Journal of Biological Chemistry, 257, 13341 (1982)].
That is, 10 μl of a test solution containing UCN-1028A, UCN-1028C or Phleichrome was added to 250 μl of a solution containing 2.5 μmoles of magnesium acetate, 50 μg of Histone Type IIS (manufactured by Sigma Co., Ltd.), 20 μg of phosphatidyl serine, 0.8 μg of diolein, 25 nmoles of CaCl2, 5 μg of crude enzyme (partially purified from rat brain according to the method of Kikkawa, et al.) and 5 μmoles of Tris-hydrochloride buffer (H 7.5), followed by incubation at 30° C. for 3 minutes. Then, phosphorylation was initiated by addition of 1.25 nmoles of [γ-^32 P]ATP (5 to 10×10^3 cpm/nmole), followed by incubation at 30° C. for 3 minutes. The reaction was stopped by adding 25% trichloroacetic acid (TCA), and the reaction solution was filtered through a cellulose acetate membrane (pore size of 0.45 μm) (manufactured by Toyo Filter Paper Co., Ltd.). After the membrane was washed four times with 5% TCA, radioactivity remaining on the membrane was measured. As a control, the same procedure as above was repeated without addition of the test solution and radioactivity was likewise measured. A concentration of the test solution showing 50% inhibition as compared with the control was expressed as IC50.

Protein Kinase A = biological target: T1, Protein Kinase A (Bos taurus, UniProt P00517); assay: Protein kinase A inhibitory activity (method of Kuo et al.); format: biochemical, calf
T1 construct: partially purified from calf heart; from tissue; host or cells: calf heart (crude enzyme, partially purified by the method of Kuo et al.)
Procedure: Protein kinase A inhibitory activity was measured according to the method of Kuo, et al. [Biochemistry, 64, […].
That is, 10 μl of a test solution was added to 250 μl of a solution containing 5 μmoles of Tris-hydrochloride buffer (pH 6.8), 2.5 μmoles of magnesium acetate, 100 μg of Histone Type IIS (manufactured by Sigma Co., Ltd.), 0.25 nmoles of C-AMP and 200 μg of crude enzyme (partially purified from calf heart according to the method of Kuo, et al.). Subsequent procedures were conducted in a manner similar to the case of measuring protein kinase C inhibitory activity described above to determine IC^50.

MCF 7 cells = assay: Anti-tumor activity: growth inhibition of MCF 7 cells (Neutral Red); format: cell-based; details: Homo sapiens
Procedure: (§1) MCF 7 cells (4.5×10^4 cells/ml) prepared in a medium comprising RPMI 1640 medium (manufactured by Gibco Co., Ltd.), 10% fetal calf serum, 10 μg/ml insulin and 10^-8 M estradiol (hereinafter referred to as medium A) were put into wells of a 96 well microtiter plate in the amount of 0.1 m(per each well. After culturing at 37° C for 20 hours in a carbon dioxide gas incubator, each test solution appropriately diluted with medium A (0.05 ml) was added thereto. Then, culturing was carried out at 37° C. for an hour in the carbon dioxide gas incubator, and the culture supernatant was removed. After the residue was washed once with […] (composition: 8 g/l NaCl, 0.2 g/l KCl, 1.5 g/l Na2 HPO4 and 0.2 g/l KH2 PO4), 0.1 ml of fresh medium A was added thereto, followed by culturing at 37° C. for 72 hours in the carbon dioxide gas incubator. Then, the culture supernatant was removed and 0.1 ml of a medium comprising medium A and 0.02% Neutral Red was added to the residue, followed by culturing at 37° C. for one hour in the carbon dioxide gas incubator, thereby staining the cells. After removal of the culture supernatant, the residue was washed once with physiological saline. Then, the pigment was extracted with 0.001 N hydrochloric acid/30% ethanol and absorbency at 550 nm was measured with a microplate reader. By comparing the absorbency of intact cells with that of the cells treated with a test solution having a known concentration, a concentration of the test solution which inhibited 50% of growth of the cells (IC50) was calculated.

HelaS3 cells = assay: Anti-tumor activity: growth inhibition of HelaS3 cells (Neutral Red); format: cell-based; details: Homo sapiens
Procedure: as §1
HelaS3 cells (3×10^4 cells/ml) prepared in a medium comprising MEM medium (manufactured by Nissui Pharmaceutical Co., Ltd.) and 2 mM glutamine were put into wells of a 96 well microtiter plate in the amount of 0.1 ml per each well. In a manner similar to the case of MCF 7 cells described above, IC^50 was calculated.

[1] = MCF7, 1 hour exposure, then 72 hours culture at 37° C., Neutral Red, 550 nm, read-out: IC50 MCF 7 cells
[2] = HeLa S3, similar to MCF 7 cells, MEM medium, 2 mM glutamine, read-out: IC50 HelaS3 cells

Structure (SMILES)	IC50 Protein Kinase C (Protein Kinase C) [µg/mL]	selective inhibitory activity on protein kinase C, as compared with Phleichrome (Protein Kinase C)	IC50 (Protein Kinase A) [µM]	IC50 (MCF 7 cells; [1]) [µg/mL]	IC50 (HelaS3 cells; [2]) [µg/mL]	Solubility in acetone (Solubility)	Solubility in alkaline water (Solubility)	Solubility in chloroform (Solubility)	Solubility in ethyl acetate (Solubility)	Solubility in methanol (Solubility)	Solubility in n-hexane (Solubility; n-hexane)	Solubility in water (Solubility)	IC50 (Protein Kinase A; crude enzyme partially purified from calf heart, Histone Type IIS, C-AMP, pH 6.8, read-out: IC50 Protein Kinase A) [µM]	IC50 (MCF 7 cells; MCF7, read-out: IC50 MCF 7 cells) [µg/mL]	IC50 (HelaS3 cells; HeLa S3, read-out: IC50 HelaS3 cells) [µg/mL]	Solubility in DMSO (Solubility; DMSO)
COc1c(CC(C)OC(=O)c2ccccc2)c2c3c(CC(C)OC(=O)c4ccccc4)c(OC)c(=O)c4c(O)cc(OC)c(c5c(OC)cc(O)c(c1=O)c52)c43 (stereo not shown) [UCN-1028A]	0.19 (≈ 0.25 µM)	selective inhibitory activity on protein kinase C	> 52.7	0.21 (≈ 0.277 µM)	0.29 (≈ 0.382 µM)	soluble	soluble	readily soluble	readily soluble	soluble	soluble	insoluble				
COc1c(CC(C)O)c2c3c(CC(C)O)c(OC)c(=O)c4c(O)cc(OC)c(c5c(OC)cc(O)c(c1=O)c52)c43 (stereo not shown) [Phleichrome, reference compound]	5.5 (≈ 9.99 µM)		59.9	0.7 (≈ 1.27 µM)	0.61 (≈ 1.11 µM)											
COc1c(CC(C)OC(=O)Oc2ccc(O)cc2)c2c3c(CC(C)OC(=O)c4ccccc4)c(OC)c(=O)c4c(O)cc(OC)c(c5c(OC)cc(O)c(c1=O)c52)c43 (stereo not shown) [UCN-1028C]	0.07 (≈ 0.0885 µM)	selective inhibitory activity on protein kinase C				soluble	soluble	soluble	soluble	readily soluble		insoluble	> 50.6	0.18 (≈ 0.228 µM)	0.19 (≈ 0.24 µM)	readily soluble
